Consider seven molecules from ChEMBL document CHEMBL1124835, “Structure-activity relationships of antineoplastic agents in multidrug resistance” (J Med Chem, 1990).

For data set [1] the following is noted: octanol/water, pH 7.4.
For data set [2], the system named is L1210.
Description: (§1) Cross resistance profile versus L1210/R71 cells.
The nature of the next data set: physchem. The note with it: octanol/water, pH 7.4.
In data set [3] the test system is L1210. Briefly: Cross resistance to the compound expressed as as log of ratio of molar concentration of drug inducing 50% inhibition of growth in murine leukemia L1210/R71 and L1210/0 cells. The data set is classed as functional, Mus musculus.
The test system of data set [4] is CHO. Briefly: Cross resistance of chinese hamster cells resistant to actinomycin D as log of ratio of molar concentration of compound inducing 50% inhibition of growth in resistant and sensitive cells. The data set is classed as functional, Cricetulus griseus.
The subject of data set [5] is CCRF-CEM. Briefly: Effect on cross resistance of CCRF-CEM cells resistant to vincristine expressed as as log of ratio of molar concentration of compound inducing 50% growth inhibition in resistant to sensitive cells. The data set is classed as functional, Homo sapiens.
Data set [6] relates to L1210. The settings on record: Mus musculus.
Description: as §1
Data set [7] deals with CHO. The settings on record: Cricetulus griseus.
Description: Effect on cross resistance of CHO cells resistant to colchicine (CHRC5)
The subject of data set [8] is CCRF-CEM. Briefly: Effect on cross resistance of CCRF-CEM cells resistant to vincristine expressed as log of ratio of molar concentration of compound inducing 50% growth inhibition in resistant to sensitive cells. Type of data set: functional, Homo sapiens.

Description for CHRC5 cell line: Collateral sensitivity of CHRC5 cells to local anesthetics/steroids as log of ratio of molar concentration of drug inducing 50% growth inhibition in CHO AUXB1 cells to that of CHRC5 cells

What is called logD is lipophilicity at a set pH, counting ionised and neutral species. In turn, `CC1(C)N=C(N)N=C(N)N1c1cccc(C(N)=O)c1` gave a logD in data set [1] of -4.49. Besides, in the data set on L1210 [2], the “Log CR” value turned out to be 1.85.
Molecule `CCc1nc(N)nc(N)c1-c1ccc(Cl)c(Cl)c1` [ETOPRINE] gave a pH-dependent lipophilicity (logD) in the data set “physchem” of 2.93. Also, in the data set on L1210 [3], the “Log CR” value was found to be 1.69.
The molecule `CN(Cc1cnc2nc(N)nc(N)c2n1)c1ccc(C(=O)N[C@@H](CCC(=O)O)C(=O)O)cc1` [METHOTREXATE] yielded a logD in “physchem” of -2.52. The figures for the “Log CR” value in the data set with CHO [4] and in the data set on L1210 [3] were 0.04 and 2.55, respectively.
In the case of `COc1cc([C@@H]2c3cc4c(cc3[C@@H](O[C@@H]3O[C@@H]5CO[C@@H](c6cccs6)O[C@H]5[C@H](O)[C@H]3O)[C@H]3COC(=O)[C@H]23)OCO4)cc(OC)c1O` [TENIPOSIDE], the logD in the data set “physchem” amounted to 1.22. For the same molecule, the “Log CR” value in the data set on CCRF-CEM [5] worked out at 1.56.
In the case of BLEOMYCIN, the figures for the Log CR in the data set with L1210 [6] and in the data set with CHO [7] were 0.24 and 0, respectively.
As for `COc1cc([C@@H]2c3cc4c(cc3[C@H](O)[C@H]3COC(=O)[C@H]23)OCO4)cc(OC)c1OC` [PODOFILOX], in the data set with CCRF-CEM [8], the “Log CR” value is listed as 0.07. In the data set “physchem”, this molecule showed a logD of 2.01.
Take `CCCCNc1ccc(C(=O)OCCN(C)C)cc1` [TETRACAINE]: in data set [1], the logD stood at 1. The Log sensitivity in the data set with CHRC5 cell line is recorded as 0.7.
